Source: PubChem BioAssay AID330 (DTP/NCI, 2004)
Where “and” joins values, the source holds several entries; their conditions need not be identical. Identical values can stand only once. Toxic doses and inconclusive results are not listed.

Tested on: P388 leukemia ip, CD2F1 mice, survival T/C
Assay: NCI In Vivo Anticancer Drug Screen. Data for tumor model P388 Leukemia (intraperitoneal) in CD2F1 (CDF1) mice
Details: endpoint: median survival time, higher = longer survival
How it was run: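 Mice carrying the transplanted tumor received test compound or vehicle. Survival was recorded in each group, and the value is the treated-group measurement divided by that of the vehicle-treated control group.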

For `COc1ccc2[nH]c3ccc4cc[n+](CCN5CCC(C6CCN(CC[n+]7ccc8ccc9[nH]c%10ccc(OC)cc%10c9c8c7)CC6)CC5)cc4c3c2c1`, the T/C (dose: 1.0 mg/kg/injection, schedule: Q01DX005 (ip), vehicle: water) was 165 % of control, the T/C (dose: 1.56 mg/kg/injection, schedule: Q01DX005 (ip), vehicle: Klucel (hydroxypropylcellulose) (HPC)) was 159 % of control and 160 % of control and the T/C (dose: 2.0 mg/kg/injection, schedule: Q01DX005 (ip), vehicle: water) was 160 % of control and 170 % of control. For the same compound, the T/C (dose: 3.12 mg/kg/injection, schedule: Q01DX005 (ip), vehicle: Klucel (hydroxypropylcellulose) (HPC)) was 150 % of control and 166 % of control, the T/C (dose: 4.0 mg/kg/injection, schedule: Q01DX005 (ip), vehicle: water) was 161 % of control and 182 % of control and the T/C (dose: 6.25 mg/kg/injection, schedule: Q01DX005 (ip), vehicle: Klucel (hydroxypropylcellulose) (HPC)) was 167 % of control and 169 % of control. For the same compound, the T/C (dose: 6.25 mg/kg/injection, schedule: Q01DX005 (ip), vehicle: other) was 161 % of control, the T/C (dose: 8.0 mg/kg/injection, schedule: Q01DX005 (ip), vehicle: water) was 163 % of control and 173 % of control and 191 % of control and the T/C (dose: 12.5 mg/kg/injection, schedule: Q01DX005 (ip), vehicle: Klucel (hydroxypropylcellulose) (HPC)) was 179 % of control and 201 % of control. The T/C (dose: 12.5 mg/kg/injection, schedule: Q01DX005 (ip), vehicle: other) was 193 % of control, the T/C (dose: 16.0 mg/kg/injection, schedule: Q01DX005 (ip), vehicle: water) was 160 % of control and 190 % of control and 221 % of control and the T/C (dose: 25.0 mg/kg/injection, schedule: Q01DX005 (ip), vehicle: Klucel (hydroxypropylcellulose) (HPC)) was 179 % of control and 200 % of control and 212 % of control. The T/C (dose: 25.0 mg/kg/injection, schedule: Q01DX005 (ip), vehicle: other) was 175 % of control and 204 % of control, the T/C (dose: 32.0 mg/kg/injection, schedule: Q01DX005 (ip), vehicle: water) was 167 % of control and 185 % of control and 223 % of control and the T/C (dose: 50.0 mg/kg/injection, schedule: Q01DX005 (ip), vehicle: Klucel (hydroxypropylcellulose) (HPC)) was 160 % of control and 224 % of control and 255 % of control. For the same compound, the T/C (dose: 50.0 mg/kg/injection, schedule: Q01DX005 (ip), vehicle: other) was 153 % of control and 160 % of control, the T/C (dose: 100.0 mg/kg/injection, schedule: Q01DX005 (ip), vehicle: Klucel (hydroxypropylcellulose) (HPC)) was 193 % of control and the T/C (dose: 200.0 mg/kg/injection, schedule: Q01DX005 (ip), vehicle: Klucel (hydroxypropylcellulose) (HPC)) was 112 % of control.

For `O=[N+]([O-])c1ccc(N=Nc2ccc(NNc3ccc([N+](=O)[O-])cn3)c3cc4ccccc4cc23)nc1`, the T/C (dose: 50.0 mg/kg/injection, schedule: Q01DX005 (ip), vehicle: saline with Tween-80) was 100 % of control and the T/C (dose: 100.0 mg/kg/injection, schedule: Q01DX005 (ip), vehicle: saline with Tween-80) was 110 % of control.

`Nc1cccnc1S(=O)(=O)O` was tested, and the T/C (dose: 50.0 mg/kg/injection, schedule: Q01DX009 (ip), vehicle: saline) was 94 % of control, the T/C (dose: 100.0 mg/kg/injection, schedule: Q01DX009 (ip), vehicle: saline) was 98 % of control and the T/C (dose: 200.0 mg/kg/injection, schedule: Q01DX009 (ip), vehicle: saline) was 98 % of control.

For `CCCN(C)CC(=O)NC(Cc1ccccc1)c1ccccc1` (centres undefined), the T/C (dose: 30.0 mg/kg/injection, schedule: Q01DX005 (ip), vehicle: Klucel (hydroxypropylcellulose) (HPC)) was 94 % of control, the T/C (dose: 60.0 mg/kg/injection, schedule: Q01DX005 (ip), vehicle: Klucel (hydroxypropylcellulose) (HPC)) was 93 % of control and the T/C (dose: 120.0 mg/kg/injection, schedule: Q01DX005 (ip), vehicle: Klucel (hydroxypropylcellulose) (HPC)) was 104 % of control.

With `CC(=O)Nc1ccc(C(=O)N2C(=N)C(C#N)=C(O)/C2=C\c2ccc(Cl)c(Cl)c2)cc1` the T/C (dose: 60.0 mg/kg/injection, schedule: Q01DX005 (ip), vehicle: saline) was 100 % of control, the T/C (dose: 120.0 mg/kg/injection, schedule: Q01DX005 (ip), vehicle: saline) was 100 % of control and the T/C (dose: 240.0 mg/kg/injection, schedule: Q01DX005 (ip), vehicle: saline) was 103 % of control.

For `CCOC(=O)NCNC(=O)OCC`, the T/C (dose: 50.0 mg/kg/injection, schedule: Q01DX009 (ip), vehicle: Klucel (hydroxypropylcellulose) (HPC)) was 100 % of control, the T/C (dose: 100.0 mg/kg/injection, schedule: Q01DX009 (ip), vehicle: Klucel (hydroxypropylcellulose) (HPC)) was 102 % of control and the T/C (dose: 100.0 mg/kg/injection, schedule: Q04DX002 (ip), vehicle: Klucel (hydroxypropylcellulose) (HPC)) was 117 % of control. The T/C (dose: 200.0 mg/kg/injection, schedule: Q04DX002 (ip), vehicle: Klucel (hydroxypropylcellulose) (HPC)) was 107 % of control and the T/C (dose: 400.0 mg/kg/injection, schedule: Q04DX002 (ip), vehicle: Klucel (hydroxypropylcellulose) (HPC)) was 110 % of control.

For `O=c1c(Cl)c2cc3c(cc2c2ccccc12)nc1ccccc1n3C1CCCCC1`, the T/C (dose: 50.0 mg/kg/injection, schedule: Q01DX009 (ip), vehicle: saline with Tween-80) was 88 % of control, the T/C (dose: 100.0 mg/kg/injection, schedule: Q01DX009 (ip), vehicle: saline with Tween-80) was 94 % of control and the T/C (dose: 200.0 mg/kg/injection, schedule: Q01DX009 (ip), vehicle: saline with Tween-80) was 98 % of control.

For `COC(=O)C12OCC34C(CC5C(C)C6=CC(=O)OC6=CC5(C)C3C(O)C1O)OC(=O)C(O)C24` (centres undefined), the T/C (dose: 0.63 mg/kg/injection, schedule: Q01DX005 (ip), vehicle: Klucel (hydroxypropylcellulose) (HPC)) was 150 % of control and the T/C (dose: 1.25 mg/kg/injection, schedule: Q01DX005 (ip), vehicle: Klucel (hydroxypropylcellulose) (HPC)) was 169 % of control.
